# Like-named read-outs stand apart in the source and are kept apart here. Starred links: 1 amine or outer side, 2 acyl side, 3 side chain; linkers in the order of their positions; H or OH if unused. Positions of bridges follow the written chain, without caps; N, C: chain ends. Non-standard residues stand in square brackets, D forms with d. Residues, ends and D or L forms follow the SMILES beside them. Groups on a side chain read outwards from the residue. *: point of attachment. X3 = NC(=O)[C@H](CCCCN*)NC(=O)CC[C@H](NC(=O)CC[C@H](NC(=O)CCCCCCCCCCCCCCC(=O)O)C(=O)O)C(=O)O; Trp(1-CH2CO) = O=C([C@H](Cc1cn(CC(=O)[*:3])c2ccccc12)N[*:1])[*:2]; Trp(5-OMe) = COc1ccc2[nH]cc(C[C@H](N)C(=O)O)c2c1; Butanoyl(4-(4-I-phenyl)) = O=C(CCCc1ccc(I)cc1)*; Trp(5-OH) = N[C@@H](Cc1c[nH]c2ccc(O)cc12)C(=O)O; Phe(4-COOH) = N[C@@H](Cc1ccc(C(=O)O)cc1)C(=O)O; X7 = O=C(O)CN1CCC(N[*:1])(C(=O)[*:2])CC1; C16 diacid = O=C(O)CCCCCCCCCCCCCCC(=O)*; γGlu = O=C(O)[C@H](CCC(=O)[*:2])N[*:1]; Hexanoyl(6-Ph) = O=C(CCCCCc1ccccc1)*; NMeK = CN[C@@H](CCCCN)C(=O)O; Aib = CC(C)(N)C(=O)O
# Biological target: T1, Recombinant human GhR-Fc protein (Homo sapiens, UniProt P10912)
# T1 construct: purchased R&D Systems
# Experiment: SPR binding assay (Biacore T200, single-cycle kinetics) of peptides against immobilized human GhR-Fc
# Settings: SPR, hGhR, KD calculated from ka and kd, read-out: KD
# Protocol: SPR assay was performed using Biacore T200 (cytiva: Former GE Healthcare). After the equilibration of Series S Sensor Chip CM5 (produced by cytiva: Former GE Healthcare) with Running Buffer (HBS-EP with 1% (v/v) DMSO), an EDC/NHS mixture was injected at a flow rate of 10 μL/min for 7 minutes to thereby activate the functional groups on sensor chip. Recombinant human GhR-Fc protein (R&D Systems) in 10 mM Acetate (pH 4.0) was injected immobilized to at a flow rate of 5 μL/min. It took 7 minutes to immobilize the GhR on the substrate surfaces of the sensor chip. Then Ethanolamine was injected at a flow rate of 10 μL/min for 7 minutes. 1M Ethanolamine (aq.) was injected at a flow rate of 10 μL/min for 420 seconds for capping.
# Using these Peptide Samples, kinetics of peptides against human GhR-Fc protein were measured. The method adopted for sample measurement was a single-cycle kinetics method. The analysis was conducted using the evaluation software provided with Biacore T200. A DMSO correction curve obtained by solvent correction measurements was applied for the analysis. Kinetics fitting was done on the difference data obtained by subtracting the baseline data from sample measurement data. KD values were calculated based on the association rate constant (ka) and dissociation rate constant (kd). […]
# T1 sequence (P10912 with tags, fused parts or gaps limits assumed): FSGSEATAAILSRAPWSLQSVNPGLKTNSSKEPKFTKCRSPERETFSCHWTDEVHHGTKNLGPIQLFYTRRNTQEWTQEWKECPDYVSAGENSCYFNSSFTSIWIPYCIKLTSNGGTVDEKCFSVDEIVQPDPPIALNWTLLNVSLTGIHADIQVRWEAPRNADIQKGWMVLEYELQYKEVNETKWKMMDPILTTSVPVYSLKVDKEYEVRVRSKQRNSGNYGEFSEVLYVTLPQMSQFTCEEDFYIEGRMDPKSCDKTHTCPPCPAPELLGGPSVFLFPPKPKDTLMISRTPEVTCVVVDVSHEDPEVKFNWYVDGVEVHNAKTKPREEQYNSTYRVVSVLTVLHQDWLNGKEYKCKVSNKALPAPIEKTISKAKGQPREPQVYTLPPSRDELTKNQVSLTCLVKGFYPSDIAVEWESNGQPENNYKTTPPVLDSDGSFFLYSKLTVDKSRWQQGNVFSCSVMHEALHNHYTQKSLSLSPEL
Compound,Kd (Table 2 monocyclic peptides) [nM],Kd (Table 1 bicyclic peptides) [nM]
CC(C)[C@@H]1NC(=O)[C@H](C(C)C)NC(=O)[C@@H]2CCCCNC(=O)Cn3cc(c4ccccc43)C[C@H](NC(=O)[C@H](CC(N)=O)NC(=O)[C@H](CO)NC1=O)C(=O)N[C@@H](Cc1ccc(O)cc1)C(=O)N[C@@H](CCCCN)C(=O)N[C@@H](Cc1c[nH]c3ccc(O)cc13)C(=O)NC(C)(C)C(=O)N[C@@H](C(C)C)C(=O)N[C@H](C(=O)NCC(=O)N1CCC[C@H]1C(=O)N[C@H](CO)C(=O)N[C@H](CO)C(=O)N[C@H](CO)C(=O)N[C@@H](CCCCNC(=O)CC[C@H](NC(=O)CC[C@H](NC(=O)CCCCCCCCCCCCCCC(=O)O)C(=O)O)C(=O)O)C(N)=O)CSCC(=O)N[C@@H](Cc1ccc(O)cc1)C(=O)N2C [Compound 31] ({CH2CO}-Y[NMeK]VVSN[Trp(1-CH2CO)]YK[Trp(5-OH)][Aib]VCGP[dS][dS][dS]K([γGlu-γGlu-C16 diacid])-NH2; lactam 2-7; thioether N-13),–,0.92
CC(C)[C@@H]1NC(=O)[C@H](C(C)C)NC(=O)[C@@H]2CCCCNC(=O)Cn3cc(c4ccccc43)C[C@H](NC(=O)[C@H](CC(N)=O)NC(=O)[C@H](CO)NC1=O)C(=O)N[C@@H](Cc1ccc(C(=O)O)cc1)C(=O)N[C@@H](CCCCN)C(=O)N[C@@H](Cc1c[nH]c3ccc(O)cc13)C(=O)NC(C)(C)C(=O)N[C@@H](C(C)C)C(=O)N[C@H](C(=O)NCCCC[C@H](NC(=O)CC[C@H](NC(=O)CC[C@H](NC(=O)CCCCCCCCCCCCCCC(=O)O)C(=O)O)C(=O)O)C(N)=O)CSCC(=O)N[C@@H](Cc1ccc(C(=O)O)cc1)C(=O)N2C [Compound 11] ({CH2CO}-[Phe(4-COOH)][NMeK]VVSN[Trp(1-CH2CO)][Phe(4-COOH)]K[Trp(5-OH)][Aib]VC-X3; lactam 2-7; thioether N-13),–,2.85
COc1ccc2[nH]cc(C[C@@H]3NC(=O)[C@H](CC(N)=O)NC(=O)[C@H](CO)NC(=O)[C@H](C(C)C)NC(=O)[C@H](C(C)C)NC(=O)[C@H](CCCCNC(=O)CC[C@H](NC(=O)CC[C@H](NC(=O)CCCc4ccc(I)cc4)C(=O)O)C(=O)O)N(C)C(=O)[C@H](Cc4ccc(O)cc4)NC(=O)CSC[C@@H](C(=O)NCC(=O)N4CCC[C@H]4C(=O)N[C@H](CO)C(=O)N[C@H](CO)C(=O)N[C@H](CO)C(N)=O)NC(=O)[C@H](C(C)C)NC(=O)C(C)(C)NC(=O)[C@H](Cc4c[nH]c5ccc(O)cc45)NC(=O)[C@H](CCCCN)NC(=O)[C@H](Cc4ccc(C(=O)O)cc4)NC3=O)c2c1 [Compound 55] ({CH2CO}-Y[NMeK]([γGlu-γGlu-Butanoyl(4-(4-I-phenyl))])VVSN[Trp(5-OMe)][Phe(4-COOH)]K[Trp(5-OH)][Aib]VCGP[dS][dS][dS]-NH2; thioether N-13),2.83,–

# Now from value to compound, other results behind:
Kd (Table 2 monocyclic peptides) [nM],Compound,Kd (Table 1 bicyclic peptides) [nM]
2.19,COc1ccc2[nH]cc(C[C@@H]3NC(=O)[C@H](CC(N)=O)NC(=O)[C@H](CO)NC(=O)[C@H](C(C)C)NC(=O)[C@H](C(C)C)NC(=O)[C@H](CCCCNC(=O)CC[C@H](NC(=O)CCCc4ccc(I)cc4)C(=O)O)N(C)C(=O)[C@H](Cc4ccc(C(=O)O)cc4)NC(=O)CSC[C@@H](C(N)=O)NC(=O)[C@H](C(C)C)NC(=O)C(C)(C)NC(=O)[C@H](Cc4c[nH]c5ccc(O)cc45)NC(=O)[C@H](CCCCN)NC(=O)[C@H](Cc4ccc(C(=O)O)cc4)NC3=O)c2c1 [Compound 39] ({CH2CO}-[Phe(4-COOH)][NMeK]([γGlu-Butanoyl(4-(4-I-phenyl))])VVSN[Trp(5-OMe)][Phe(4-COOH)]K[Trp(5-OH)][Aib]VC-NH2; thioether N-13),–
2.82,COc1ccc2[nH]cc(C[C@@H]3NC(=O)[C@H](CC(N)=O)NC(=O)[C@H](CO)NC(=O)[C@H](C(C)C)NC(=O)[C@H](C(C)C)NC(=O)[C@H](CCCCNC(=O)CC[C@H](NC(=O)CCCCCc4ccccc4)C(=O)O)N(C)C(=O)[C@H](Cc4ccc(C(=O)O)cc4)NC(=O)CSC[C@@H](C(N)=O)NC(=O)[C@H](C(C)C)NC(=O)C4(CCN(CC(=O)O)CC4)NC(=O)[C@H](Cc4c[nH]c5ccc(O)cc45)NC(=O)[C@H](CCCCN)NC(=O)[C@H](Cc4ccc(C(=O)O)cc4)NC3=O)c2c1 [Compound 38] ({CH2CO}-[Phe(4-COOH)][NMeK]([γGlu-Hexanoyl(6-Ph)])VVSN[Trp(5-OMe)][Phe(4-COOH)]K[Trp(5-OH)][X7]VC-NH2; thioether N-13),–

# — patent US12415834B2, “GhR-binding peptide and composition comprising same” (priority 2021, dated 2025)
